Reference: BindingDB's records for doi:10.1021/jm00034a005 (University of Paris, 1994)

Target: Neprilysin
Test: In vivo inhibitory potency against neutral endopeptidase by displacement of [3H]HACBOGly binding in mouse kidney

Row | Compound | IC50 [nM]
1 | CC(c1ccc(O)cc1)C(CS)C(=O)NC(Cc1ccc(O)cc1)C(=O)O (stereo not given) [3-(4-Hydroxy-phenyl)-2-[3-(4-hydroxy-phenyl)-2-mercaptomethyl-butyrylamino]-propionic acid] | 9
2 | CC(c1ccc(N)cc1)C(CS)C(=O)NC(Cc1ccc(O)cc1)C(=O)O (stereo not given) [2-[3-(4-Amino-phenyl)-2-mercaptomethyl-butyrylamino]-3-(4-hydroxy-phenyl)-propionic acid] | 16
3 | CC(c1ccc(F)cc1)C(CS)C(=O)NC(Cc1ccc(O)cc1)C(=O)O (stereo not given) [2-[3-(4-Fluoro-phenyl)-2-mercaptomethyl-butyrylamino]-3-(4-hydroxy-phenyl)-propionic acid] | 5.9
4 | CCC(NC(=O)C(CS)C(C)c1ccccc1)C(=O)O (stereo not given) [2-(2-Mercaptomethyl-3-phenyl-butyrylamino)-butyric acid] | 6.3

These reach a lower IC50. Values come first.

Row | IC50 [nM] | Compound
5 | 5.2 | CC(c1ccc(F)c(F)c1)C(CS)C(=O)NC(Cc1ccc(O)cc1)C(=O)O (stereo not given) [2-[3-(3,4-Difluoro-phenyl)-2-mercaptomethyl-butyrylamino]-3-(4-hydroxy-phenyl)-propionic acid]
6 | 2 | CC(NC(=O)C(CS)C(C)c1ccc2c(c1)OCO2)C(=O)O (stereo not given) [2-(3-Benzo[1,3]dioxol-5-yl-2-mercaptomethyl-butyrylamino)-propionic acid]
7 | 2 | CC(NC(=O)C(CS)C(C)c1ccc(F)cc1)C(=O)O (stereo not given) [2-[3-(4-Fluoro-phenyl)-2-mercaptomethyl-butyrylamino]-propionic acid]
8 | 4 | CC(c1ccccc1)C(CS)C(=O)NC(COCc1ccccc1)C(=O)O (stereo not given) [3-Benzyloxy-2-(2-mercaptomethyl-3-phenyl-butyrylamino)-propionic acid]
9 | 3.5 | CC(NC(=O)C(CS)C(C)c1ccc(F)c(F)c1)C(=O)O (stereo not given) [2-[3-(3,4-Difluoro-phenyl)-2-mercaptomethyl-butyrylamino]-propionic acid]
10 | 2 | O=C(NC(Cc1ccc(O)cc1)C(=O)O)C(CS)Cc1ccccc1 (stereo not given) [3-(4-Hydroxy-phenyl)-2-(2-mercaptomethyl-3-phenyl-propionylamino)-propionic acid]
